10 compounds from ChEMBL document CHEMBL1130586 (Bioorg Med Chem Lett, 1998) can be followed below.

Structures are written as SMILES.

The target in one assay is Histamine H3 receptor (Cavia porcellus, UniProt Q9JI35). The assay is described as follows: Compound was tested for the agonist activity against histamine H3 receptor of guinea pig ileum. The format is functional, tissue-based. Conditions: read-out: pA2 (converted).
In assay [1] the target is Muscarinic acetylcholine receptor M3 (Cavia porcellus, UniProt Q8VH26). In words: Compound was tested for its agonist activity against M3-acetylcholine receptor of guinea pig ileum. The note with it: read-out: pA2 (converted). In kind it is functional, tissue-based.
The target in assay [2] is T1, Histamine H1 receptor (Cavia porcellus, UniProt P31389). The assay is described as follows: Compound was tested for the contractile effects antagonized by mepyramine (1-1000 nM) against Histamine H1 receptor of guinea pig aorta. The note with it: read-out: pA2 (converted). The format is functional.
Assay [3] has as its target T1, Histamine H1 receptor. The assay is described as follows: Contractile effects antagonized by mepyramine (0.3-100 nM) against Histamine H1 receptor in guinea pig ileum. In kind it is functional, tissue-based. Conditions: read-out: pA2 (converted).
For assay [4], the target named is Histamine H1 receptor (Cavia porcellus) (UniProt P31389). In words: Compound was tested for its […] in the presence of mepyramine (1-1000 nM) against Histamine H1 receptor of guinea pig aorta. In kind it is functional.
Assay [5] has the same target. In words: Relative potency against Histamine H1 receptor of guinea pig aorta. The format is functional, tissue-based.
Assay [6] shares this target. In words: Partial agonist activity against Histamine H1 receptor in guinea pig ileum. The format is functional, tissue-based.
The target is the same in assay [7]. The assay is described as follows: Compound was tested for binding affinity against guinea pig ileum. In kind it is tissue-based.
Assay [8] concerns the target Histamine H2 receptor (Cavia porcellus) (UniProt P47747). In words: Compound was tested for agonist activity against histamine H2 receptor of guinea pig atrium. The format is functional, tissue-based. Conditions: Cardiac atrium.
Assay [9] concerns the target Histamine H1 receptor (Cavia porcellus) (UniProt P31389). In words: Partial agonist activity with mepyramine against Histamine H1 receptor in guinea pig ileum. In kind it is functional, tissue-based.
Assay [10] shares this target. The assay is described as follows: Relative potency against Histamine H1 receptor in guinea pig ileum. The format is functional, tissue-based.
The target is the same in assay [11]. In words: Partial agonist activity against Histamine H1 receptor in guinea pig aorta. In kind it is functional, tissue-based.
Assay [12] has the same target. The assay is described as follows: Compound was tested for its partial agonist activity in the presence of 100 nM mepyramine against Histamine H1 receptor in guinea pig ileum. The format is functional, tissue-based.
Assay [13] shares this target. The assay is described as follows: Compound was tested for its partial agonist activity in the presence of 10 nM mepyramine against Histamine H1 receptor in guinea pig ileum. The format is functional, tissue-based.
Assay [14] has the same target. The assay is described as follows: Compound was tested for its partial agonist activity in the presence of 1 nM mepyramine against Histamine H1 receptor in guinea pig ileum. In kind it is functional, tissue-based.

Sequence of Histamine H1 receptor (Cavia porcellus) (P31389 whole entry): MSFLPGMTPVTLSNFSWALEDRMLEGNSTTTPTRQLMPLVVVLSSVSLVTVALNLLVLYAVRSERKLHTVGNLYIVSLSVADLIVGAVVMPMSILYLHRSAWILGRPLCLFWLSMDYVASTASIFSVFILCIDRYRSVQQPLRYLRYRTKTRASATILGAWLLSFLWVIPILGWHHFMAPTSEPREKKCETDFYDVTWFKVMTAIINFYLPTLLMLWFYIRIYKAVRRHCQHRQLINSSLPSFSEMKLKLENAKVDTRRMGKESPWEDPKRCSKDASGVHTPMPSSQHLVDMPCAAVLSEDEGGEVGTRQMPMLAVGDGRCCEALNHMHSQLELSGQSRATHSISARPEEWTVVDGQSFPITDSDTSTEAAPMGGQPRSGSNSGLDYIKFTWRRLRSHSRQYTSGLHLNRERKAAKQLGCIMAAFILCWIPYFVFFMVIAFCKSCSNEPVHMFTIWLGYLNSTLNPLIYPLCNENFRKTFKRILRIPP
T1 sequence (P31389 whole entry): as above
Sequence of Histamine H2 receptor (Cavia porcellus) (P47747 whole entry): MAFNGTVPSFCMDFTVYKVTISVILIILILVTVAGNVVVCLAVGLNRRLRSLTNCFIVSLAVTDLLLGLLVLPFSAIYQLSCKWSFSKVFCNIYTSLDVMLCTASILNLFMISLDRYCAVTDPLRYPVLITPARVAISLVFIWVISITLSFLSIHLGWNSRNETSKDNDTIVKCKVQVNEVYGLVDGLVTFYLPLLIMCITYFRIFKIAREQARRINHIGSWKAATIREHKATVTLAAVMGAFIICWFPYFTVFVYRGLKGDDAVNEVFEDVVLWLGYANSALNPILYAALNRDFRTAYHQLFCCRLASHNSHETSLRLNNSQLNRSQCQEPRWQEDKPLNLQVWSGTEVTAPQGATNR
Sequence of Muscarinic acetylcholine receptor M3 (Q8VH26 whole entry): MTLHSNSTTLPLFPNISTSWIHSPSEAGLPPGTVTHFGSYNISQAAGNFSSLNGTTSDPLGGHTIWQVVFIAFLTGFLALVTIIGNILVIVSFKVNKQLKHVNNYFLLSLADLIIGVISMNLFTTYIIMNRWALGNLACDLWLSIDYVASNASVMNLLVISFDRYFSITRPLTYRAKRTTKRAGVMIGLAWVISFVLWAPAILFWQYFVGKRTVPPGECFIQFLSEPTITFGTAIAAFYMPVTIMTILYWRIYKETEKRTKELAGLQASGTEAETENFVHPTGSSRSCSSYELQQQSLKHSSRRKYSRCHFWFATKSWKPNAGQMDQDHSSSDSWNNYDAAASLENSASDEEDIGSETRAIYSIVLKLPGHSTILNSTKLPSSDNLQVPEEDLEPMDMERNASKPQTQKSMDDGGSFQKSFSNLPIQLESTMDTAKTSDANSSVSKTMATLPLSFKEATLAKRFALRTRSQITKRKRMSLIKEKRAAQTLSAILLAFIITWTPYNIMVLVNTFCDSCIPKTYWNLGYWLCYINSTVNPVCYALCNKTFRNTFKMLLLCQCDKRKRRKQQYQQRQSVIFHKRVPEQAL
Sequence of Histamine H3 receptor (Q9JI35 whole entry): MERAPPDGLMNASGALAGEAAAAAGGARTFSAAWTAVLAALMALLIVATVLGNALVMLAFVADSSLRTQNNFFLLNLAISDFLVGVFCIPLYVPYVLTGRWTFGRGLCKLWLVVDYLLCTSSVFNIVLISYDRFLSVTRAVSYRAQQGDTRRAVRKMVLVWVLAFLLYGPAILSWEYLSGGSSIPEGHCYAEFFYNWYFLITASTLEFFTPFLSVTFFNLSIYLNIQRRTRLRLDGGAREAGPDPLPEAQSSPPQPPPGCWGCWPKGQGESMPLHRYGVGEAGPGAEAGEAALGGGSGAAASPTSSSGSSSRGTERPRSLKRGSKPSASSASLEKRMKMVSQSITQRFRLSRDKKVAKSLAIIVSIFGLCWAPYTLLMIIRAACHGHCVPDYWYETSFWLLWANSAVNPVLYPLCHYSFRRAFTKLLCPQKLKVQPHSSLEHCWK

On to `NCCc1cnc(-c2cccc(C(F)(F)F)c2)[nH]1`, for which the Kb at Histamine H3 receptor is 6170 nM; in assay [1], 107000 nM; on Histamine H1 receptor [2], 0.977 nM; on Histamine H1 receptor [3] it was 0.891 nM.

For `CNCCc1c[nH]c(-c2cccc(Br)c2)n1`, the Emax in assay [4] was 75%; in [6], 95%; in assay [9] it was 71%; in [11], 76%. Also, the Relative potency in [5] was determined as 43%; in [10], 109%. This compound registered a pKp in [7] of 6.17. The compound also had a pD2 in assay [8] of 3.86. Moreover, the Kb at Histamine H3 receptor was 11700 nM; in assay [1] it was 112000 nM; at Histamine H1 receptor [2], 0.977 nM; at Histamine H1 receptor [3], 0.741 nM.

In the case of `NCCc1c[nH]c(-c2cccc(C(F)(F)F)c2)n1`, the values for the Relative potency in assay [5] and in assay [10] were 94% and 128%, respectively. The Emax stood at 100% in assay [6]; 65% in [12]; 80% in [13]; 80% in assay [11]; 97% in [14]. This compound also came in with a pKp in [7] of 6.23. Also, the pD2 in assay [8] came out at 3.48.

On to `FC(F)(F)c1cccc(-c2nc(CCNC3CC3)c[nH]2)c1`, for which the Emax in assay [6] came to 36%; in assay [9] it was 20%. Further, the pKp in assay [7] turned out to be 6.12. This compound also displayed a pD2 in [8] of 4.36. For the same compound, on Histamine H1 receptor [3], the Kb is 0.741 nM. For the same compound, the Relative potency in assay [10] amounted to 28%.

With `CN(C)CCc1c[nH]c(-c2cccc(C(F)(F)F)c2)n1`, the Emax came to 64% in assay [4], 88% in assay [6], 67% in assay [9] and 54% in [11]. Further, the values for the Relative potency in [5] and in [10] were 169% and 95%, respectively. The compound further gave a pKp in assay [7] of 6.39. Also, in assay [8], the pD2 came out at 4.56. Also, the Kb on Histamine H3 receptor was 1120 nM; in assay [1] it was 26900 nM; at Histamine H1 receptor [2], 1.41 nM; on Histamine H1 receptor [3], 1.2 nM.

As for `NCCc1c[nH]c(-c2cccc(Br)c2)n1`, the maximal response (Emax) in [6] was found to be 100%; in assay [11], 64%. In addition, in assay [7], the pKp amounted to 5.97. For the same compound, the Kb was 6310 nM on Histamine H3 receptor, 155000 nM in assay [1], 1.26 nM on Histamine H1 receptor [2] and 0.741 nM on Histamine H1 receptor [3].

For `CCNCCc1c[nH]c(-c2cccc(C(F)(F)F)c2)n1`, the figures for the Emax in [6] and in assay [9] were 63% and 40%, respectively. Moreover, the pKp in assay [7] amounted to 5.68. In assay [8], this compound displayed a pD2 of 4.55. In addition, the Kb was 2340 nM at Histamine H3 receptor, 69200 nM in [1] and 1.05 nM on Histamine H1 receptor [3]. Also, the Relative potency in assay [10] came out at 30%.

In the case of `CN(C)CCc1c[nH]c(-c2cccc(Br)c2)n1`, the Emax in [4] is 49%; in assay [6], 81%; in assay [9] it was 58%; in [11], 58%. In addition, the Relative potency in assay [5] was 31%; in assay [10], 87%. In assay [7], this compound had a pKp of 6.2. The compound also displayed a pD2 in [8] of 4.74. For the same compound, the Kb at Histamine H3 receptor is 1450 nM; in [1], 64600 nM; on Histamine H1 receptor [2], 1.15 nM; on Histamine H1 receptor [3], 0.708 nM.

For `CNCCc1c[nH]c(-c2cccc(C(F)(F)F)c2)n1`, the maximal response (Emax) in [4] was determined as 66%; in assay [6], 97%; in assay [9], 77%; in assay [11], 59%. In addition, the Relative potency in [5] was determined as 217%; in assay [10], 174%. In [7], the pKp came out at 6.47. For the same compound, the pD2 in assay [8] came out at 4.04. Further, the Kb at Histamine H3 receptor is 4370 nM; in assay [1], 115000 nM; at Histamine H1 receptor [2] it was 0.832 nM; at Histamine H1 receptor [3] it was 0.912 nM.

In the case of `NCCc1c[nH]cn1`, the Emax in assay [4], in assay [6], in [9] and in assay [11] was 100% in each case.

The term Emax denotes the size of the effect at its maximum, as opposed to the concentration needed.
